Reference: US9303069B2, “Peptides for treating cancer” (University of Mississippi Medical Center, priority 2014, dated 2016)
pIC50: −log10 of the molar value. Ends that are not written are not given here.

Assays:
BRCA1-IRIS = BRCA1-IRIS expression in ovarian cells (Western analysis); format: cell-based, human; settings: all ovarian cell lines; 10 μM of IRIS peptide for 24 hours
From the text: At these low concentrations of cisplatin BRCA1-IRIS expression was induced in HOSE cells and remained high in HOSE/IRIS cells (FIG. 17). […] Cell lines expressing the lowest levels of BRCA1-IRIS (i.e.

SKOV3 cells [1] = test: Invasion assay, matrigel-coated Boyden chambers, SKOV3; format: cell-based, human; settings: 72 hours, IRIS peptide 5 μM, versus control-treated cells
Description: Invasion assay: Control (transfected with siLuc or treated with scrambled peptide, 5 μM) or shIRIS expressing SKOV3 cells were layered on top of matrigel-coated Boyden chambers. Some cultures were treated with 5 μM IRIS peptide. Seventy-two hours later, cells that invaded the matrigel and migrated to the lower side of the chambers were stained with Crystal Violet, counted and photographed. […] Similarly, BRCA1-IRIS silenced cells also lost their invasion ability by ˜75 fold (compare C to A in FIG. 36 and FIG. 35).
Cell Invasion assay. Growth reduced BD Matrigel™ invasion chamber (24 well plate, 8.0 μm, BD BioCoat™) was used to study the invasion ability of control and shBRCA1-IRIS cells. Cells (5×10^3) in complete medium (500 μl) were seeded on the upper compartment, and the lower compartment was filled with 750 μl of complete growth medium. Cells were incubated for 72 hours. The medium from the upper chamber was removed, and the cells on the upper surface of the membrane were removed carefully with a cotton swab. Invasive cells in lower side of the membrane were stained with crystal violet dye for 10 minutes. After staining, the upper chamber was rinse thoroughly with water until the water runs clear. Stained and dry chambers were visualized with microscope and photographed.

SKOV3 cells [2] = test: Tumor-sphere forming assay, SKOV3; format: cell-based, human; settings: SKOV3, ultra-low binding dishes, two weeks; IRIS peptide 5 μM every third day
Description: Tumor-sphere: SKOV3 cells treated with scrambled or IRIS peptide (5 μM, added every third day) or expressing BRCA1-IRIS shRNA were grown in ultra-low binding culture dishes as single cells. […] BRCA1-IRIS silencing led to ˜7 fold decrease in tumor-sphere number (FIG. 43) and diameter (FIG. 43, inset), and an even more pronounced effect was detected with IRIS peptide (FIG. 43, and inset).
Tumor-sphere forming assay. Subconfluent monolayer cells were trypsinized and dissociated thoroughly to prepare single cell suspension. 1000 cells were plated, per well, onto ultra-low attachment 6-well plates (Corning Life Sciences, Union City, Calif.) in Dulbecco's modified Eagle's medium (DMEM)/F12 supplemented with 10% FBS, 2% B27 (Invitrogen), 10 ng/ml basic-fibroblast growth factor and 10 ng/mL epidermal growth factor. Cells were then incubated at 37° C. in humidified air with 10% CO2. 500 μl of medium was added to each well every 3 days, the medium containing the scrambled or IRIS peptide. […]

[3] = tested on: HME, MDA-MB-231, MDA-MB-468 and BT549 cells; test: Survival of breast cell lines after siRNA transfection followed by IRIS peptide; format: cell-based, human; settings: siRNA 48 hours, then IRIS peptide 24 hours
Description: To rule out any off target effect of this peptide, HME, MDA-MB-231, MDA-MB-468 and BT549 cells were first transfected with luciferase (siLuc) or BRCA1-IRIS (siIRIS) siRNA for 48 hours before they were exposed to increasing concentrations of IRIS peptide for an additional 24 hours. As would be expected from treatments that target the same target, whether inactivating BRCA1-IRIS (FIG. 81) or depleting its mRNA first (FIG. 82) the percentages of cells remained following these treatments were identical (see FIG. 83).
Small interfering RNA transfections. Specific siRNAs for luciferase (negative control) or human BRCA1-IRIS were obtained from Ambion, USA. Transfection was done using Oligofectamine™ reagent (GibcoBRL Inc, USA) and standard protocol (for reference see ElShamy and Livingston, 2004). Knockdwon of the target protein was usually confirmed by Western blotting 72 hours later. Cell viability was evaluated by MTS or by manual counting after 72 hours of siRNA transfection or combined with paclitaxel (24 hour exposure). Each experiment was done in triplicate, repeated three separate times

[4] = tested on: AKT, p-AKT, p-FOXO and FOXO3a; test: Signalling proteins in MDA-MB-231 and MDA-MB-468 cells (Western); format: cell-based, human
From the text: This was completely in line with decreased MDM2 and Skp2 (the ubiquitin ligases responsible for p-FOXO degradation) expression in BRCA1-IRIS silenced and BRCA1-IRIS and AKT inactivated cells (FIG. 87).

MDA-MB-468 tumors = test: In vivo efficacy on established MDA-MB-468 tumors; set-up: species or system mice; settings: day 12; IRIS peptide 10 mg/kg i.t.; combination at half the concentrations
Description: Nude 6-8 weeks female mice were injected with 2×10^6 of MDA-MB-468 cells in the 2nd left and 4th right mammary fat pads. When all tumors reached ˜0.1 cm^3 in volume, mice were divided into four groups, one received vehicles (i.e. DMSO injected intraperitoneally [i.p.] and scrambled peptide injected directly into tumors [i.t.]), another received paclitaxel (10 mg/kg, i.p.), the third received IRIS peptide at (10 mg/kg, i.t.), and the last received paclitaxel and IRIS peptide at half the concentrations, injected as above. Drugs were delivered every third day for total of four injections.
In Vivo efficacy of BRCA1-IRIS-inhibitory peptide. Six to eight week old female athymic SCID mice were injected in the second right and the fourth left mammary gland with 2.5×10^6 of MDAMB468 cells. Tumor growth was followed daily until tumors reached 100 mm^3. At this time mice were randomly grouped into four different groups that were injected: a) with DMSO (i.p.) and scrambled peptide (10 mg/kg) intra-tumoral (i.t.), b) injected with IRIS peptide (10 mg/kg, i.t.), c) injected with paclitaxel (10 mg/kg, i.p.), d) injected with IRIS peptide (5 mg/kg, i.t.), and paclitaxel (5 mg/kg, i.p.). […] Change in tumor volume was measured to monitor the efficacy of the treatments using caliper and is represented as percentage of volume at day 0 of treatment. […]

HME cells = settings: 48 h
Description: All cell lines were exposed to increasing concentrations of paclitaxel and BRCA1-IRIS expression, and cells' viability was then measured.
Cell viability measurement. Cell viability under different experimental conditions was determined using the MTS assay. Briefly, cells (2.5×10^4 cells per well) were seeded in 96-well plates and incubated overnight at 37° C. in 10% humidified CO2 atmosphere. The next day they were incubated with varying concentration of peptide, or inhibitors for 24 hours at 37° C. Cell viability was determined using cell Titer 96® Aqueous (Promega, Madison, Wis., USA) following manufacturer's instructions. Cell viability (%) was expressed as a ratio of treated cells to control cells×100. […] Each experiment was done in triplicate, repeated three separate times.

RRIRPRPPRLPRPRPRPLPFPRPGIGTRFLCLPQSIYRSELNVYAFGEHILQISKYS [IRIS peptide]
BRCA1-IRIS expression (BRCA1-IRIS): significant reduction in BRCA1-IRIS expression
decreased ability to invade (SKOV3 cells [1]): ~100 fold
tumor-sphere formation (SKOV3 cells [2]): formed no tumor-spheres
percentages of cells remaining, IRIS peptide after siIRIS versus after siLuc [3]: identical
total and activated AKT (p-AKT) levels ([4]; 5 μM IRIS peptide or 10 μM LY294002, 24 hours): decreased the levels of total and activated AKT (p-AKT) in both cell lines
p-FOXO and FOXO3a levels ([4]; 5 μM IRIS peptide, 10 μM LY294002 or 10 μM PD98059, 24 hours): decreased p-FOXO level and increased the levels of FOXO3a in both cell lines
tumor size as % of original size (at day 0) (MDA-MB-468 tumors): ~75%
pIC50 (HME cells): ~6.30
